Patent US6733995B2, “Cathepsin L, its prepro form and the corresponding propeptide from ciliates” (Nutrinova Nutrition Specialties & Food Ingredients GmbH, priority 1996, dated 2004)
Non-standard residues stand in square brackets, D forms with d. Residues, ends and D or L forms follow the SMILES beside them. *: point of attachment. Sta = CC(C)C[C@H](N)[C@@H](O)CC(=O)O; Isovaleryl = CC(C)CC(=O)*

Biological target: T1, Paramecium cathepsin L isozymes (30 kDa and 33 kDa) (Paramecium tetraurelia, UniProt Q94714)
T1 construct: identical enzyme proteins were involved, with the proteins possibly only being processed differently; from tissue; host or cells: Paramecium tetraurelia mass cultures (cell homogenate)
T1 sequence (Q94714 110-314): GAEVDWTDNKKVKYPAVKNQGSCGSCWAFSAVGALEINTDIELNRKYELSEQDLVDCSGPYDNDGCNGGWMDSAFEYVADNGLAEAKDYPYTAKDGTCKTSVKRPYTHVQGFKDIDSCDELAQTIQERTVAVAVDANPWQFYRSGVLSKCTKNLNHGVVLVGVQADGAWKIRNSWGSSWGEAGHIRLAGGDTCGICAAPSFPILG
Experiment: Effect of class-specific protease inhibitors on the purified Paramecium proteases (cathepsin L assay)
Assay type: biochemical
Settings: 32P phosphorylase a as substrate
Protocol: ^32P-Phosphorylase a (approx. 5×10^4 cpm/min) was used as substrate. A test mixture (30 μl) contained 10 μM substrate, 12 mM Tris/HCl (pH 7.0), 50 μM EDTA, 10 mM 2-mercaptoethanol, 5 mM caffeine and 6.7 μg of BSA. The reaction was stopped, after incubating at 30° C. for 10 minutes, by adding 200 μl of trichloroacetic acid (20% w/v). The radioactivity of the non-precipitable peptides was determined in the supernatant following centrifugation. One unit of enzyme activity corresponds to the quantity which liberates 1 μmol of soluble ^32P-phosphopeptide/min.
All the purification steps were carried out at 4° C. The cells were homogenized in 50 mM Tris/HCl (pH 7.0), 5 mM EDTA using a French press. Cell debris were removed by centrifugation (23,000×g, 60 min; 100,000×g, 60 min). The supernatant was loaded onto a DEAE Sepharose® column which was equilibrated with 20 mM Tris/HCl (pH 7.0). About half the protease activity eluted with the flowthrough. The column was washed with 250 mM NaCl. The remaining protease activity was eluted with 450 mM KCl. After that, the active fractions were purified through a Sephacryl® S-100 HR column. The protease eluted at approximately 27 kDa. The pooled active fractions were subsequently loaded onto a mono Q column. Elution was carried out using a linear gradient (60 ml of from 100 to 350 mM NaCl). Two active proteases (30 kDa and 33 kDa) were separated in this step. Purity was examined by means of SDS-PAGE. When using ^32P phosphorylase a as substrate, the pH optimum of the two isozymes was 6.5; the temperature optimum was 56° C.

| Molecule | effect of inhibitor on protease activity |
| --- | --- |
| O=C(O)CN(CCN(CC(=O)O)CC(=O)O)CC(=O)O [EDTA] | no inhibitory effect |
| Cc1ccc(S(=O)(=O)NC(CCCCN)C(=O)CCl)cc1 (stereo not drawn) [TLCK] | reduced the activity drastically |
| CC(=O)N[C@@H](CC(C)C)C(=O)N[C@@H](CC(C)C)C(=O)N[C@H](C=O)CCCNC(=N)N [leupeptin] | reduced the activity drastically |
| CC(C)CC(=O)N[C@H](C(=O)N[C@H](C(=O)N[C@@H](CC(C)C)[C@@H](O)CC(=O)N[C@@H](C)C(=O)N[C@@H](CC(C)C)[C@@H](O)CC(=O)O)C(C)C)C(C)C [pepstatin] (Isovaleryl-VV[Sta]A[Sta]-OH) | no inhibitory effect |
| aprotinin | no inhibitory effect |
| cystatin | reduced the activity drastically |
